Reference: ChEMBL document CHEMBL5465560, “Selectivity Literature for EUbOPEN Chemogenomic Library” (2024)

What was measured:
[1] = target: T1, Tyrosine-protein kinase ZAP-70 (Homo sapiens) (UniProt P43403); details: at 10 µM
T1 sequence (whole entry): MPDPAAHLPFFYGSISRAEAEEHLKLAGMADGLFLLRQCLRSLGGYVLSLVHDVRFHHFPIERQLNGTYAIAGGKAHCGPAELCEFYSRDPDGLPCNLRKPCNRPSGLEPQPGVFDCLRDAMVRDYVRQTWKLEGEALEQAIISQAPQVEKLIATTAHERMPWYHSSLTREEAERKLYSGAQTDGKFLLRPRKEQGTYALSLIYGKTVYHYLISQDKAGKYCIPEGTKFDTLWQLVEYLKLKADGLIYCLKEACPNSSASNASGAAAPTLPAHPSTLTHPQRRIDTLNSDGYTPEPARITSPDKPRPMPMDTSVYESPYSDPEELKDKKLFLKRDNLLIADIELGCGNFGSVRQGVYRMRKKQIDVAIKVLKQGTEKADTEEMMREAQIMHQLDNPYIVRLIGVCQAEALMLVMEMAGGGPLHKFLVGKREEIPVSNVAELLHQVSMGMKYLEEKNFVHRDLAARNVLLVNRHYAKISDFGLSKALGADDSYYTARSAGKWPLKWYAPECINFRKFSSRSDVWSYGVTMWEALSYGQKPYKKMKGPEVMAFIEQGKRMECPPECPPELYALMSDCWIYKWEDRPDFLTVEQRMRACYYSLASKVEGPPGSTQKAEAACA

[2] = target: T2, Mitogen-activated protein kinase kinase kinase 15 (Homo sapiens) (UniProt Q6ZN16); experiment: Selectivity interaction (ActivX KiNativ screen (kinase selectivity in THP-1 cell lysates)) EUB0000639a MAP3K15; assay type: subcellular; details: lysate
T2 sequence (whole entry): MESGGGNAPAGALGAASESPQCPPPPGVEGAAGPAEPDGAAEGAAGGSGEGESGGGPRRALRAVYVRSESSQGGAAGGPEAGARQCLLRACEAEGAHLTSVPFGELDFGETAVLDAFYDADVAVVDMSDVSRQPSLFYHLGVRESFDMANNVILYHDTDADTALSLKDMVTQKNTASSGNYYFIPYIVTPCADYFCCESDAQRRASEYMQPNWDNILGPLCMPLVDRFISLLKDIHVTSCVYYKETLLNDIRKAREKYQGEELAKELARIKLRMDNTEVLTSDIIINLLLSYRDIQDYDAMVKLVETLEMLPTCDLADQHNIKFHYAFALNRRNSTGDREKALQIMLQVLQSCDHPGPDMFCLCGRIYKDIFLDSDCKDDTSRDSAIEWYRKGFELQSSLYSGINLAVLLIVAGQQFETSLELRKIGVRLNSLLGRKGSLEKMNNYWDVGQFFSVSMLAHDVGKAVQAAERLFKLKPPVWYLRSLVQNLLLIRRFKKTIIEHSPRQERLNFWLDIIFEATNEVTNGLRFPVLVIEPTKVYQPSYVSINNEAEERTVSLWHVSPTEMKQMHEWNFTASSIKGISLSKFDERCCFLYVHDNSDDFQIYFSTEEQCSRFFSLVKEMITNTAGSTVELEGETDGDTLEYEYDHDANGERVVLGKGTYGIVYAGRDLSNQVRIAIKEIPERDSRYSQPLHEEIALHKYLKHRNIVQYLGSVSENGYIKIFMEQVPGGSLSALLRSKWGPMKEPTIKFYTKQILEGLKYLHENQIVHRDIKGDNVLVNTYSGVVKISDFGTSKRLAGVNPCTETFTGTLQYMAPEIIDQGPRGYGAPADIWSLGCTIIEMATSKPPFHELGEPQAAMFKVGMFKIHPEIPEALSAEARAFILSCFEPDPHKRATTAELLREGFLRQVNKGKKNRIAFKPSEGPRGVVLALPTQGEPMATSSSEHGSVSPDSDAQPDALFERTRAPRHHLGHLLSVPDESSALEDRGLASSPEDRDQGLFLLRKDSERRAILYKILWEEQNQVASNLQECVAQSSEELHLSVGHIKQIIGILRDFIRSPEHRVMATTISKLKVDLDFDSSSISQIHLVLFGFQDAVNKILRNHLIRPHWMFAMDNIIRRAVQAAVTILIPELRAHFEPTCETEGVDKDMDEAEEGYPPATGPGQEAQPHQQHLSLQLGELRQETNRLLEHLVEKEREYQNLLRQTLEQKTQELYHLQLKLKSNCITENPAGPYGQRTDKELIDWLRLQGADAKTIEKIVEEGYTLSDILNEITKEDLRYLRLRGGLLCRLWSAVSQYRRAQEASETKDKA

[3] = target: T3, Ephrin type-B receptor 3 (Homo sapiens) (UniProt P54753); details: at 10 µM
T3 sequence (whole entry): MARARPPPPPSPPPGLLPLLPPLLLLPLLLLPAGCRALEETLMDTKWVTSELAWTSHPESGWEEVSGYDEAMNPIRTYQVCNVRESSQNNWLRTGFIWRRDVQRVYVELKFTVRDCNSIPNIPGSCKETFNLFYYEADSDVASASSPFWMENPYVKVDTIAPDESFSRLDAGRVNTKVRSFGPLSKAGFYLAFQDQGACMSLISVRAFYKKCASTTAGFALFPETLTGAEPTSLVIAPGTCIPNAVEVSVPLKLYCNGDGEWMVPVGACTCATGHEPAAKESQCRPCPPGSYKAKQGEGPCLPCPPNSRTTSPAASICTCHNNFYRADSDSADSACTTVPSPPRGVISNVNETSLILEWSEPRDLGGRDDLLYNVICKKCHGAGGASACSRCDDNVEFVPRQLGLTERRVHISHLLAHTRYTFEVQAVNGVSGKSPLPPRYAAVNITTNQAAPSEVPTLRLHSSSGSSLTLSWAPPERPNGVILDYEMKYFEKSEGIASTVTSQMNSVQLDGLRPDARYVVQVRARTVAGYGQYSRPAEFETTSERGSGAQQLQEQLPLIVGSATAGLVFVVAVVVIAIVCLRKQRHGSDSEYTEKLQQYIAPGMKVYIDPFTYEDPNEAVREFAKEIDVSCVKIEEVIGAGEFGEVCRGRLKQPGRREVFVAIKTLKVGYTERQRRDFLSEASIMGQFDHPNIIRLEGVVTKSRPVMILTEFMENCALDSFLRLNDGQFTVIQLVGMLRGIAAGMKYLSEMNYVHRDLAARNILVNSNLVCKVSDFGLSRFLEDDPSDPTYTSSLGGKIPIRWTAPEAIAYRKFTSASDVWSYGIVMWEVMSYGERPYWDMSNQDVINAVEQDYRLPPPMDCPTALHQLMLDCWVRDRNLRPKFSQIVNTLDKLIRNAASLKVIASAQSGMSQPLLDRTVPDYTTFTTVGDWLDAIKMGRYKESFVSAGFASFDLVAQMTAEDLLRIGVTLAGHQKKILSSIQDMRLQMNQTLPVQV

Aurora kinase B = Aurora kinase B (Homo sapiens, UniProt Q96GD4); experiment: Selectivity interaction (Panel of kinases, GPCRs, ion channels and transporters (enzymatic assay)) EUB0000266bCl AURKB
Sequence of Aurora kinase B (Q96GD4 whole entry): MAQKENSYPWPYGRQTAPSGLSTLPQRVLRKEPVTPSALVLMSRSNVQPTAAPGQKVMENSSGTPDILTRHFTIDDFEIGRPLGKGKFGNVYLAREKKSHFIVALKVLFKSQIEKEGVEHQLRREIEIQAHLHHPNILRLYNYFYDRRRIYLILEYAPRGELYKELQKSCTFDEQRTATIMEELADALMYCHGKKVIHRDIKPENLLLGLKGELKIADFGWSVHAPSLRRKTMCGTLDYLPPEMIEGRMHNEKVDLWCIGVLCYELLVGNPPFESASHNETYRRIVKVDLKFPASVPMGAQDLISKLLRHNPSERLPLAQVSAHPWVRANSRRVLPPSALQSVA

SMILES: CCN(CC)CCCCNc1ncc2cc(-c3cc(OC)cc(OC)c3)c(NC(=O)NC(C)(C)C)nc2n1
- % of control [1]: 100%

SMILES: CC[C@@H]1[C@H](F)C(=O)N[C@@H]1COc1nccc2cc(C(N)=O)c(OC)cc12 [ZIMLOVISERTIB]
- % of inhibition ([2]; at 0.01 µM): -12.1%
- % of inhibition ([2]; at 0.04 µM): -3.2%
- % of inhibition ([2]; at 0.2 µM): 0%
- % of inhibition ([2]; at 1 µM): -6.5%
- % of inhibition ([2]; at 5 µM): -21.9%

SMILES: Cc1cc([C@@H](C)Nc2ccccc2C(=O)O)c2nc(N3CCOCC3)cc(=O)n2c1 [AZD-6482]
- % of control [3]: 100%

SMILES: CCn1c(-c2nc3cc(C(=O)N4CCCC(N)C4)ccc3n2C)cc2ccccc21 (stereo not drawn)
- pXC50 (Aurora kinase B): < 4.5 M
